Laboratory results as given in US12161634B2, “Pyruvate kinase R (PKR) activating compositions” (Novo Nordisk Health Care AG, priority 2020, dated 2024).

Assay: Dynamic vapor sorption (DVS)
Assay type: physicochemical
Conditions: for hygroscopicity: DVS at RT; for water uptake from 60% RH to 80% RH / water uptake up to 60% RH: DVS; for water uptake from 60% RH to 80% RH / water uptake up to 60% RH / form change before and after DVS test: RT; for water uptake up to 60% RH: up to 60% RH (ambient condition); for form change before and after DVS test: determined by XRPD
Description: Dynamic Vapor Sorption (DVS) was measured with a Surface Measurement System (SMS) DVS Intrinsic.

## O=C([C@H](CO)c1ccccc1)N1CC2=C(C1)CN(S(=O)(=O)c1cnc3c(c1)OCCO3)C2 [Type C, (S)-1-(5-[2H,3H-[1,4]dioxino[2,3-b]pyridine-7-sulfonyl]-1H,2H,3H,4H,5H,6H-pyrrolo[3,4-c]pyrrol-2-yl)-3-hydroxy-2-phenylpropan-1-one]
  hygroscopicity: hygroscopic
  water uptake from 60% RH to 80% RH: 0.5%
  water uptake up to 60% RH: 1.8%
  form change before and after DVS test: No form change

## O=C([C@H](CO)c1ccccc1)N1CC2=C(C1)CN(S(=O)(=O)c1cnc3c(c1)OCCO3)C2 [Type B, (S)-1-(5-[2H,3H-[1,4]dioxino[2,3-b]pyridine-7-sulfonyl]-1H,2H,3H,4H,5H,6H-pyrrolo[3,4-c]pyrrol-2-yl)-3-hydroxy-2-phenylpropan-1-one]
  hygroscopicity: hygroscopic
  water uptake from 60% RH to 80% RH: 0.4%
  water uptake up to 60% RH: 2.9%
  form change before and after DVS test: No form change
